In patent US4223032A, “Triazolo [4,5-b] quinolines and prophylaxis of allergic diseases with them” (Beecham Group Limited, priority 1977, dated 1980):

System: passive cutaneous anaphylaxis (PCA)
Assay: Passive Cutaneous Anaphylaxis (PCA)
Format: in vivo, Male Wistar rats
Conditions: rat, i.v., carrier PBS with NaHCO3, time 0 mins before antigen challenge
Protocol: Passive Cutaneous Anaphylaxis (PCA)
Serum containing heat labile homocytotropic antibody was raised in rats to crystallized ovalbumin XOA by the method of Mota (I. Mota, Immunology, 7,681 [1964] using Bordettela pertussis vaccine as adjuvant.
Passive cutaneous anaphylaxis (PCA) was carried out by a method based on that of Ovary and Bier, (A. Ovary and O. G. Bier, Proc. Soc. Exp. Biol. Med. 81, 584, [1952]) as modified by Goose and Blair. (Immunology 16, 749 [1969]).
Male Wistar rats of 250-300 g. were given 0.1 ml. of each of six twofold serial dilutions of pooled antiserum in 0.9% saline injected intradermally into separate sites on their shaved backs. Later (72 hrs.) the animals were challenged by intravenous injection of 0.3 ml. of a 1% solution of ovalbumin in an isotonic solution of saline buffered with 0.05 M, pH 7.2, Sorenson Buffer (PBS), mixed with 0.2 ml. of a 5% solution of Pontamine Sky Blue (6BX C.I. 24410, Raymond A. Lamb, London) in isotonic saline. The rats were killed after 20 min and the diameter of the blue wheals at the antibody injection sites was measured on the outer surface of the skin. The starting dilution of the serum was adjusted so that there was no response, after challenge, at the injection site of the highest dilution and a maximum response at the lowest dilutions. Typically six twofold serial dilutions of the serum from 1/4 to 1/128 were used.
Compounds were tested for their ability to reduce the diameter of the wheals at those intradermal sites which in control animals gave less than maximum response. Each dose of the compound was administered to six rats at a measured time prior to intravenous challenge with ovalbumin. Control groups of six rats were given the same volume (0.2 ml/100 g) of carrier fluid at the same time prior to the challenge.
The results were calculated as follows. % inhibition of PCA=100 (1-a/b) where a=the sum of the diameters of the wheals produced in the test animal at the sites of antibody dilutions as used in control groups and b=the mean sum of the diameters of the wheals produced in the control group of animals at those antibody sites where at least five out of six of the animals gave less than maximum response. A typical variation in the control group of animals was SEM± 6%.

| SMILES | % Inhib PCA (2 mg/kg) [%] | % Inhib PCA (4 mg/kg) [%] | % Inhib PCA (10 mg/kg) [%] | % Inhib PCA (5 mg/kg) [%] | % Inhib PCA (20 mg/kg) [%] |
| --- | --- | --- | --- | --- | --- |
| O=c1c2ccccc2[nH]c2nn[nH]c12 [Example 1, 4,9-Dihydro-9-oxo-1H-triazolo[4,5-b] quinoline] | 14 | 22 | 79 | – | – |
| O=c1c2cc(Cl)ccc2[nH]c2nn[nH]c12 [Example 3, 7-Chloro-4,9-dihydro-9-oxo-1H-triazolo[4,5-b] quinoline] | – | – | – | 36 | 70 |
| Cc1ccc2[nH]c3nn[nH]c3c(=O)c2c1 [Example 2, 4,9-dihydro-7-methyl-9-oxo-1H-triazolo[4,5-b] quinoline] | – | – | 65 | 16 | – |
